Experiments:
[1] = tested on: K562 cells; assay: in vitro
Experimental: (§1) To normalize luciferase units to the number of viable cells, parallel cell viability assays were performed using 3-(4,5-dimethylthiazol-2-yl)-2,5-diphenyltetrazolium bromide (MTT) (Vistica, D. T. et al. (1991) Cancer Res. 51:2515-2520). Transfected K562 cells were plated in 96 well dishes at a density of 2×10^4 and 2×10^3 cells per 100 μl per well. 24 hours later, the cells were treated with test compounds (at a final concentration of 5 mM). At 24, 50, 74 or 122 hours after treatment, 50 μl of 3 mg/ml MTT in PBS was added to each well. The 96 well plate was then incubated at 37° C. for 4 to 5 hours. The formazan derivatives formed from tetrazolium by viable cells were solubilized by the addition of 50 μl/well 25% SDS, pH 3, overnight at 37° C. The plates were than read at a wavelength of 550 nm.

[2] = tested on: gamma globin gene expression (gamma3'PE reporter) in K562 cells; assay: gamma globin promoter-luciferase reporter assay in stably transfected gamma3'PE K562 cells; settings: for induction of gamma-globin reporter gene expression over time course (FIG. 3): 24-122 hr, normalized to viable cells; for reporter gene activity relative to VA or IVA (FIG. 5): 24 hours, fold-induction relative to isovaleric acid; for fold induction at 5000 µM: Homo sapiens, K562, 72 h, read-out: fold induction of reporter gene activity (FIG. 6)
Experimental: The gamma globin 5' promoter and 3' enhancer fragments, alone or in combination with each other or another fragment, were inserted into restriction endonuclease sites flanking the coding sequences of the luciferase gene in pGL2 using standard recombinant DNA techniques (pGL2 was obtained commercially from Promega Biotech). Constructs were prepared which contained: 1) the gamma globin promoter alone upstream of the luciferase gene (gamma); 2) the gamma globin promoter upstream of the luciferase gene and the gamma globin 3' enhancer downstream of the luciferase gene (gamma3'PE); 3) the gamma globin promoter upstream of the luciferase gene and the SV40 enhancer downstream of the luciferase gene (gammaSV40); 4) the beta globin promoter upstream of the luciferase gene and the gamma globin 3' enhancer downstream of the luciferase gene Coeta3'PE); and 5) hypersensitive sites 2 and 3 G-IS2 and HS3) of the 5' globin enhancer upstream of the gamma globin promoter upstream of the luciferase gene and the gamma globin 3' enhancer downstream of the luciferase gene (HS2/3gamma3'PE). These constructs are illustrated schematically in FIG. 2.
The gamma globin-luciferase reporter gene constructs described in Example 1 were introduced into a human erythroleukemia cell line K562 (ATCC No. CCL 243). To create stable transfectants, K562 cells (5×10^6) in log phase were suspended in 400 μl HEPES buffered saline and then combined with 33.5 μg salmon testes DNA (Sigma), 1.5 μg neo plasmid (pPMT) and 15 μg reporter gene plasmid supercoiled that had been co-precipitated and suspended in 400 μl HEPES buffered saline. The DNA-cell mixture was electroporated at settings of 0.25 KV and 960 μFD using a Gene Pulser (BioRad Inc.) electropotation apparatus.
The cells were allowed to recover 10 minutes at room temperature, then added to 10 ml complete RPMI cell culture medium. Cell debris was removed by centrifugation at 1000 rpm for 5 minutes. The live cells were suspended in 20 ml RPMI in 2×10 cm dishes and grown in non-selective media for 48 hours. Stably transfected cells were then selected by growing the cells in media containing 300 μg/ml G418 for about one month. During this time the cells were split 1:5 every 3 to 4 days. Once the lines were stable, they were carried in 100 μg/ml G418. The cell lines were designated according to the reporter gene construct that was introduced into the cell line. For example, a cell line carrying the gamma'3PE construct was designated gamma3'PE. Transient transfections were carried out similarly except that the neo plasmid was omitted from the electroporation solution and the cells were not subjected to G418 selection.
K562 host cells carrying gamma globin-reporter gene constructs were used to lo screen compounds for their ability to induce globin gene expression, as measured by increased reporter gene activity in the host cells upon treatment with the compound. The host cells described in Example 2 were grown to log phase cells and plated at a density of 2×10^5 /ml in RPMI media without G418. After 24 hours, compounds to be assayed for their ability to induce globin gene expression were dissolved in RPMI media at a concentration of 5 mM and added to the K562 stable transfectants. Mock-treated stably transfected K562 cells served as a negative control. The cells were incubated with the test compounds at 37° C. for various time periods (e.g., 24, 50, 74 and 122 hours).
After induction with the test compounds, the cells were harvested, lysed and assayed for reporter gene activity (i.e., luciferase activity) as follows. Cells were collected, washed once with PBS and lysed in 200 μl Cell Culture Lysis 1 X Reagent (Promega Luciferase Assay System) consisting of 25 mM Tris-Phosphate pH 7.8; 2 mM DTT; 2 mM 1,2-diaminocyclohexane-N,N,N,N-tetraacetic acid; 10% glycerol; 1% Triton X-100.

[3] = tested on: gamma globin mRNA; assay: Northern hybridization of gamma globin mRNA in treated K562 cells; format: cell-based, human; settings: for Raw Value, gamma globin RNA / Normalized Value, gamma globin RNA: K562 cells, 5 mM, 96 hours; for Normalized Value, gamma globin RNA: normalized to 28S ribosomal RNA; for gamma globin mRNA steady state level: vs untreated cells or cells treated with BA
Experimental: (§2) Total RNA was prepared by the method of McDonald as described in Sambrook et al., (1989) Molecular Cloning: A Laboratory Manual, 2nd Edition, Cold Spring Harbor Laboratory Press. 10 μg total cellular RNA was electrophoresed through agarose gels containing 3.3% formaldehyde. The electrophoresed RNA was then transferred to nitrocellulose filters by standard methods. Each sample was hybridized to specific probes for gamma globin mRNA, mRNA encoding the erythroid specific transcription factor GATA-1 and 28S ribosomal RNA (which was used for standardization). The gamma globin and GATA-1 probes were cDNA probes, which were labeled with ^32 p by random priming reactions (Promega Biotech Inc.). The 28S ribosomal RNA probe was an oligonucleotide having the sequence 5' […] 3' (SEQ ID NO: 3), which was labeled by 5' end labeling using T4 polynucleotide kinase (New England Biolabs). Nucleotide probes were hybridized to the RNA nitrocellulose filters according to standard techniques. After hybridization, radioactive signals on the nitrocellulose filters were directly quantified using a BioRad GS-250 Molecular Imager. mRNA hybridization intensities were normalized to the amount of 28S ribosomal RNA present for each sample.

[4] = tested on: GATA-1 mRNA; assay: Northern hybridization of GATA-1 mRNA in treated K562 cells; format: cell-based, human; settings: for induction of mRNA encoding GATA-1: normalized data; for Normalized Value, GATA-1 RNA: normalized to 28S ribosomal RNA
Experimental: as §2

[5] = tested on: gamma globin reporter gene activity in gamma3'PE K562 cells (protein kinase C activation); assay: effect of indolactam V stereoisomers on basal and BA-induced reporter gene activity; format: cell-based, human; settings: for effect on BA-induced globin gene expression (fold increment vs untreated cells) / effect on basal level globin gene expression: 11 μM or 0.4 μM; for effect on BA-induced globin gene expression (fold increment vs untreated cells): 1 hour before 5 mM BA for 24 hours; for effect on basal level globin gene expression: no BA
Experimental: The role of activated protein kinase C (pKC) in the activation of gamma globin gene expression by BA was investigated. […] The chemical structures of these compounds are shown in FIG. 13, panel A and B, respectively. Gamma3'PE cells were pre-incubated with either inducer (at 11 μM or 0.4 μM) or left untreated for 1 hour prior to treatment with 5 mMBA for 24 hours, followed by harvesting of the cells and assaying of luciferase activity. The results are shown in FIG. 14, Panel A (11 μM inducer) and FIG. 14, Panel B (0.4 μM inducer). […] Thus, it appears that these compounds act synergistically through pathways converging at some point downstream of the initial site of action of either inducer.

[6] = in vitro; settings: human, k562 cells
Experimental: as §1

[7] = tested on: BA-mediated induction of luciferase activity in gamma3'PE K562 cells; assay: effect of transport inhibitors on BA-induced reporter gene activity in gamma3'PE K562 cells; format: cell-based, human; settings: acetazolamide 1 mM, SITS 10 μM, amiloride 10 μM; 24 hours with BA
Experimental: To characterize uptake of butyric acid by erythroid cells, K562 cells stably transfected with gamma3'PE were treated with BA in the presence of various transport inhibitors. […] Cells were maintained in the continuous presence of both BA and the inhibitor for 24 hours and then luciferase activity in the cells was measured.

[8] = compared with induction mediated by BA

CCCCC(=O)O [VA, valeric acid]
cell death accompanying gamma globin gene induction [1]: significantly less cell death than induction mediated by BA | cell viability relative to untreated cells (FIG. 7) [1]: equivalent to that of untreated cells | induction of gamma-globin reporter gene expression over time course (FIG. 3) ([2]; 5 mM): lower but sustained induction of reporter gene expression | induction relative to BA at 74 hr (FIG. 4) ([2]; 5 mM, normalized to fold induction by BA, 74 hr): marginally better inducers than BA at 74 hr | induction relative to BA at 122 hr (FIG. 4) ([2]; 5 mM, normalized to fold induction by BA, 122 hr): significantly better inducers than BA at 122 hr post induction | fold induction at 5000 µM ([3]; Homo sapiens, K562, 96 h, read-out: Fold Induction, gamma globin RNA): 4.4 | Raw Value, gamma globin RNA [3]: 3.35 × 10^6 | Normalized Value, gamma globin RNA [3]: 3.3 × 10^6 | gamma globin mRNA steady state level [3]: higher steady state level of gamma globin mRNA than untreated cells or cells treated with BA | fold induction at 5000 µM ([4]; Homo sapiens, K562, 96 h, read-out: Fold Induction, GATA-1 RNA): 6 | Raw Value, GATA-1 RNA ([4]; K562 cells, 5 mM, 96 hours): 3.96 × 10^5 | induction of mRNA encoding GATA-1 [4]: significant induction of mRNA encoding GATA-1 | Normalized Value, GATA-1 RNA ([4]; K562 cells, 5 mM, 96 hours): 3.5 × 10^5

CCCCC(=O)OC(=O)CCCC [valeric acid anhydride]
reporter gene activity relative to VA or IVA (FIG. 5) ([2]; 5 mM): detectable reporter gene activity, although to a lesser extent than VA or IVA

CC(C)[C@H]1C(=O)N[C@H](CO)Cc2c[nH]c3cccc(c23)N1C [(-) indolactam V]
effect on BA-induced globin gene expression (fold increment vs untreated cells) [5]: same fold increment | effect on basal level globin gene expression [5]: significant stimulatory effect on basal level globin gene expression | net increase in gene expression of combined treatment with BA ([5]; combined (-) indolactam V and 5 mM BA): well above the arithmetic sum of the level of induction achieved by either of these compounds separately

O=C(O)CCCc1ccccc1 [4-phenyl butyric acid]
reporter gene activity relative to VA or IVA (FIG. 5) ([2]; 5 mM): detectable reporter gene activity to a slightly greater extent than VA or IVA

CC(C)CC(=O)O [IVA, isovaleric acid]
cell death accompanying gamma globin gene induction [1, 8]: significantly less cell death than induction mediated by BA | induction of gamma-globin reporter gene expression over time course (FIG. 3) ([2]; 5 mM): lower but sustained induction of reporter gene expression | Raw Value, gamma globin RNA [3]: 5.94 × 10^6 | Normalized Value, gamma globin RNA [3]: 5.3 × 10^6 | gamma globin mRNA steady state level [3]: higher steady state level of gamma globin mRNA than untreated cells or cells treated with BA | induction of mRNA encoding GATA-1 [4]: significant induction of mRNA encoding GATA-1 | Normalized Value, GATA-1 RNA ([4]; K562 cells, 5 mM, 96 hours): 1.3 × 10^6

O=C(O)CCCCc1ccccc1 [5-phenyl valeric acid]
reporter gene activity relative to VA or IVA (FIG. 5) ([2]; 5 mM): detectable reporter gene activity, although to a lesser extent than VA or IVA

C#CCCC(=O)O [4PyA, 4-pentynoic acid]
cell death accompanying gamma globin gene induction [1]: significantly less cell death than induction mediated by BA | viability at 72 h, 5000 µM [6]: > 50% | fold induction at 5000 µM [2]: ~4

COCC(=O)O [MoAA, methoxyacetic acid]
cell death accompanying gamma globin gene induction [1, 8]: significantly less cell death than induction mediated by BA | viability at 72 h, 5000 µM [6]: > 50% | fold induction at 5000 µM [2]: ~4

CCC(=O)O [propionic acid]
reporter gene activity relative to VA or IVA (FIG. 5) ([2]; 5 mM): detectable reporter gene activity, although to a lesser extent than VA or IVA

CC(=O)Nc1ccc(C=Cc2ccc(N=C=S)cc2S(=O)(=O)O)c(S(=O)(=O)O)c1 [SITS]
effect on BA-mediated induction of luciferase activity [7]: did not affect BA-mediated induction of luciferase activity

CC(=O)Nc1nnc(S(N)(=O)=O)s1 [acetazolamide]
effect on BA-mediated induction of luciferase activity [7]: did not affect BA-mediated induction of luciferase activity

CSCC(=O)O [MtAA, methylthioacetic acid]
cell death accompanying gamma globin gene induction [1]: significantly less cell death than induction mediated by BA | viability at 72 h, 5000 µM [6]: > 50% | fold induction at 5000 µM [2]: ~5

N=C(N)NC(=O)c1nc(Cl)c(N)nc1N [amiloride]
effect on BA-mediated induction of luciferase activity [7]: did not affect BA-mediated induction of luciferase activity

O=C(O)CCc1ccccc1 [3-phenyl propionic acid]
reporter gene activity relative to VA or IVA (FIG. 5) ([2]; 5 mM): detectable reporter gene activity, although to a lesser extent than VA or IVA

CC(C)[C@@H]1C(=O)N[C@@H](CO)Cc2c[nH]c3cccc(c23)N1C [(+) indolactam V]
effect on BA-induced globin gene expression (fold increment vs untreated cells) [5]: same fold increment | effect on basal level globin gene expression [5]: unaffected
